The source of these data is US20240209005A1, “BICYCLIC HETEROARYL BORONATE DERIVATIVES AS ECTONUCLEOTIDE PYROPHOSPHATASE PHOSPHODIESTERASE 1 INHIBITORS” (RIBOSCIENCE LLC, priority 2021, published 2024).

SMILES strings stand for the structures.

In one assay the test system is HGS tumor model. Briefly: Anti-tumor activity in HGS tumor model. Conditions: animals treated with 20/kg of compound, day 42 after inoculation. In kind it is in vivo.
Text: […]
With `C=CC(=O)N1CCN(CCCn2c(=O)c(-c3c(Cl)c(OC)cc(OC)c3Cl)cc3cnc(NC)nc32)CC1` [8-(3-(4-acryloylpiperazin-1-yl)propyl)-6-(2,6-dichloro-3,5-dimethoxyphenyl)-2-(methylamino)pyrido[2,3-d]pyrimidin-7(8H)-one], the tumor size is recorded as 55 mm3.

A further assay deals with T1, ENPP1 (Homo sapiens, UniProt P22413).
T1 sequence (P22413 1-925): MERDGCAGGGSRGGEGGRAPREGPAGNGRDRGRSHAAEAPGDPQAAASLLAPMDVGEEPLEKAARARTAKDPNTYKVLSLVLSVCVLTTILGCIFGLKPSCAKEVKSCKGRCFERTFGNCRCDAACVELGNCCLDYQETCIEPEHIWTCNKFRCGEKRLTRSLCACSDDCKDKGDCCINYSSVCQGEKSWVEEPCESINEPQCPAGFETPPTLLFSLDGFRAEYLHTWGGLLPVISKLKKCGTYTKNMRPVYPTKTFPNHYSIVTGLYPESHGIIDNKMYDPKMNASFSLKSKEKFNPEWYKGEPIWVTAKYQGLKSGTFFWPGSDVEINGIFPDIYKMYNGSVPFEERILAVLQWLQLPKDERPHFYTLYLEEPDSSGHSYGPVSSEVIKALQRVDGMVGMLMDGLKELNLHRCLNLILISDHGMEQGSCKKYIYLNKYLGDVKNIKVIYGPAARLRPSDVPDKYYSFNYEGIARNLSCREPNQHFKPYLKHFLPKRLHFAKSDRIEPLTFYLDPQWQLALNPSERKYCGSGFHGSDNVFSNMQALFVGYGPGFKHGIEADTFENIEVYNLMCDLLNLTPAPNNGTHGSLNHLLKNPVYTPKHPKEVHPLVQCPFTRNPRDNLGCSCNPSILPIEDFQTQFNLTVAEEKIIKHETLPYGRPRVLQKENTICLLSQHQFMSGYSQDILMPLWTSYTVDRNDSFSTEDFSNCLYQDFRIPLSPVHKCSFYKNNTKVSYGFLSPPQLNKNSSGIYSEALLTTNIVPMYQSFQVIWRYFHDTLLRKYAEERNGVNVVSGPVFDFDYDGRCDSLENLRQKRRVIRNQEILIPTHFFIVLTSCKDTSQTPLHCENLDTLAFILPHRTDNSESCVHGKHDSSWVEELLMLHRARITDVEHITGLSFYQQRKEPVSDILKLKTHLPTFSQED
Description: Measurement of pNP-TMP hydrolysis by ENPP1. Conditions: purified ENPP1, pNP-TMP substrate 500 μM, KM 232 μM; Ki calculated from IC50 by Cheng-Prusoff. Type of assay: biochemical. As to the method: p-Nitrophenyl thymidine 5′-monophosphate (pNP-TMP) is a synthesized substrate for ENPP1. The ENPP1 enzyme activity assay with pNP-TMP substrate was conducted as follows:
Incubation of ENPP1 with compounds was set at 25° C. for 10 min. […] For each compound dilution, wells with assay buffer (50 mM Tris-HCl, pH8.8, 250 mM NaCl, 0.1 mg/ml BSA, 1% DMSO) only but no ENPP1 were included as controls for subtraction of test compound derived absorbance at 405 nm.
Absorbance at 405 nm was recorded immediately in kinetic mode by PerkinElmer 2300 Enspire multimode plate reader.
For each inhibitor, the specific ENPP1 activity was calculated using the following equation: ENPP1 activity (pmol/min/g)=Adjusted Vmax (OD405 nm/min) X conversion factor (pmol/OD405 nm)/amount of enzyme (g)
Adjusted Vmax=V0×(Km+(S))/(S).
V0=(OD405 nm with ENPP1−OD405 nm ENPP1 blank)/minutes. OD405 nm was plotted, with blank subtracted, against time (minutes), the initial linear rate is V0. […]
The slope is the conversion factor. The percent ENPP1 activity for each sample was calculated using the following equation:
% enzyme activity=sample enzyme activity/MAX Activity×100%.
To determine the IC50 for each compound, compound concentration values and percent enzyme activity values were inserted into GraphPad Prism (GraphPad Prism version 7.0 for Windows, GraphPad Software, La Jolla California USA, www.graphpad.com), and Prism's Transform analysis was used to convert the x-axis values (compound concentration) to logarithms. A sigmoidal variable slope nonlinear regression analysis was performed using the following equation: Y=Bottom+(Top−Bottom)/(1+10^((LogIC50−X)*HillSlope)).
As a reminder, the Ki is a dissociation constant, usually derived from enzyme kinetics or from competition with a known ligand. As for `OB(O)c1ccc(CNc2ncnc3cn[nH]c23)cc1` [compound 9, 4-([1H-pyrazolo[4,3-d]pyrimidin-7-ylamino]methyl)-phenylboronic acid], the Ki is under 0.1 µM. The same measure, in the same setting: then `Cc1nc(NCc2ccc(B(O)O)cc2)c2c(cnn2C)n1` [compound 5, 4-[([1,5-dimethylpyrazolo[4,3-d]pyrimidin-7-yl]amino)-methyl]phenylboronic acid], with under 1 µM; and `O=C(Nc1csc2c(NCc3ccc(B(O)O)cc3)ncnc12)c1ccccc1` [compound 24, 4-[([7-benzamidothieno[3,2-d]pyrimidin-4-yl]amino)-methyl]phenylboronic acid], with over 10 µM.

On to `OB(O)c1ccc(CNc2ncnc3nc[nH]c23)cc1` [compound 20, 4-[(7H-purin-6-ylamino)methyl]phenylboronic acid], for which the Ki was under 10 µM. With `CC(=O)Nc1csc2c(NCc3ccc(B(O)O)cc3)ncnc12` [Cpd. 8, 4-[([7-acetamidothieno[3,2-d]pyrimidin-4-yl]amino)-methyl]phenylboronic acid], the Ki was under 0.1 µM. On the same count and under the same terms, with `OB(O)c1ccc(CNc2ccnc3cn[nH]c23)cc1` [compound 37, 4-([1H-pyrazolo[4,3-b]pyridin-7-ylamino]methyl)phenyl-boronic acid] the figure was under 0.1 µM. Still for that read-out and setting: then `CC(=O)Nc1cn(C)c2c(NCc3ccc(B(O)O)cc3)ncnc12` [Cpd. 2, 4-[([7-acetamido-5-methylpyrrolo[3,2-d]pyrimidin-4-yl]-amino)methyl]phenylboronic acid], with under 1 µM; and `Cn1ncc2nc(C=Cc3ccccc3)nc(NCc3ccc(B(O)O)cc3)c21` (mixture of isomers) [compound 34, 4-[([1-methyl-5-[2-phenylethenyl]pyrazolo[4,3-d]pyrimidin-7-yl]amino)-methyl]phenylboronic acid], with under 1 µM.
